# Test results taken from ChEMBL document CHEMBL1130419, “8-(1H-imidazol-1-yl)-7-nitro-4(5H)-imidazo[1,2-alpha]quinoxalinone and related compounds: synthesis and structure-activity relationships for the AMPA-type non-NMDA receptor” (J Med Chem, 1997).
# How the values were obtained:
# [1] = biological target: T1, Glutamate receptor ionotropic, AMPA (Rattus norvegicus, UniProt P19490+P19491+P19492+P19493); experiment: Inhibition of [3H]AMPA binding to Ionotropic glutamate receptor from rat whole brain.
# [2] = organism: Rattus norvegicus; experiment: The compound was tested for anti-KA-Induced Neurotoxicity in rat primary hippocampal cultures.; format: functional; conditions: Hippocampus
# [3] = biological target: Glutamate NMDA receptor; experiment: The compound was tested for its ability to inhibit [3H]Glu binding to N-methyl-D-aspartate glutamate receptor from rat whole brain.
# [4] = biological target: Glutamate NMDA receptor; experiment: The compound was tested for its ability to inhibit [3H]Gly binding to N-methyl-D-aspartate glutamate receptor from rat whole brain.
# [5] = biological target: T1, Glutamate receptor ionotropic, AMPA; experiment: The compound was tested for its ability to inhibit [3H]AMPA binding to Ionotropic glutamate receptor AMPA from rat whole brain
# [6] = organism: Rattus norvegicus; experiment: The compound was tested for anti-KA-Induced Neurotoxicity in rat primary hippocampal cultures; format: functional; conditions: Hippocampus
# [7] = biological target: Glutamate NMDA receptor; experiment: The compound was tested for its ability to inhibit [3H]Gly binding to N-methyl-D-aspartate glutamate receptor from rat whole brain
SMILES,Ki [1],also measured
Cc1nccn1-c1cc2nc(O)c(O)nc2cc1[N+](=O)[O-],390 nM,–
CCc1cnc2c(O)nc3cc([N+](=O)[O-])c(-n4ccnc4)cc3n12,20 nM,–
O=C1Nc2cc(-n3ccnc3)c([N+](=O)[O-])cc2C1=O,> 100000 nM,–
CCc1nnc2c(O)nc3cc([N+](=O)[O-])c(-n4ccnc4)cc3n12,48 nM,–
CCC1CN=C2C(=O)Nc3cc([N+](=O)[O-])c(-n4ccnc4)cc3N21 (configuration not stated),150 nM,–
CCCc1nnc2c(O)nc3cc([N+](=O)[O-])c(-n4ccnc4)cc3n12,–,Ki [5]: 99 nM
CCCCc1nnc2c(O)nc3cc([N+](=O)[O-])c(-n4ccnc4)cc3n12,–,Ki [5]: 70 nM
O=c1[nH]c2cc([N+](=O)[O-])c(-n3ccnc3)cc2n(O)c1=O,–,IC50 [6]: 310 nM; Ki [7]: 4200 nM
NS(=O)(=O)c1cccc2c1c([N+](=O)[O-])cc1nc(O)c(O)nc12 [NBQX],–,IC50 [2]: 380 nM
O=c1[nH]c2cc(-n3ccnc3)c([N+](=O)[O-])cc2[nH]c1=O [YM-90K],–,IC50 [2]: 810 nM

# Continued, in another order:
Ki [1],SMILES,also measured
96 nM,Cc1nnc2c(O)nc3cc([N+](=O)[O-])c(-n4ccnc4)cc3n12,–
66 nM,Oc1nc2cc(C(F)(F)F)c(-n3ccnc3)cc2n2ccnc12,IC50 [2]: 320 nM
57 nM,O=[N+]([O-])c1cc2nc(O)c3nccn3c2cc1-n1ccnc1,IC50 [2]: 300 nM; Ki [3]: > 300000 nM; Ki [4]: > 300000 nM
6600 nM,CCCc1nnc2c(O)nc3cc(-n4ccnc4)c([N+](=O)[O-])cc3n12,–
130 nM,CCCn1c(=O)c(=O)[nH]c2cc([N+](=O)[O-])c(-n3ccnc3)cc21,–
190 nM,O=[N+]([O-])c1cc2nc(O)c3nncn3c2cc1-n1ccnc1,–
> 10000 nM,Cc1nccn1-c1cc2c(cc1[N+](=O)[O-])nc(O)c1ncc(C)n12,–
